Source: US20130089724A1, “NOVEL ORGANIC UV ABSORBERS” (COMMISSARIAT A L'ENERGIE ATOMIQUE ET AUX ENERGIES …, priority 2010, published 2013)

How the values were obtained:
Format in all cases: physicochemical
[1] = comparative accelerated aging test of pyrene derivatives in silica sol-gel layer; conditions: 0.5 mg/ml, 620 W/m^2, 24 h, black body 55° C, versus pyrenesulfonic, pyreneboronic, pyreneacetic
Description: A silica sol-gel solution as defined in example 1 is prepared.
At the same time, four aqueous solutions respectively comprising pyrenecarboxylic, pyrenesulfonic, pyreneboronic and pyreneacetic, at 0.5 mg/ml, with one molar equivalent of sodium hydroxide, are prepared.
A volume of each aqueous solution thus obtained is mixed with an equivalent volume of the sol-gel solution: each mixture obtained is subsequently deposited by “knife coating” on a microscope slide transparent to UV-A radiation.
After drying in ambient air, these slides are subjected to an accelerated aging test in a Suntest CPS chamber from Atlas.
The aging conditions are as follows: irradiance at 620 W/m^2, xenon arc lamp equipped with a “sheet glass” filter which cuts off the UV radiation below 310 nm, exposure time 24 h. The temperature for regulating the black body is 55° C.
FIG. 3 reports the absorption spectra of the different pyrene derivatives described above as a function of time.

[2] = accelerated aging test (Suntest CPS) of silica sol-gel deposited layer, 620 W/m^2, 24 h; conditions: 0.5 mg/ml solution, xenon arc 620 W/m^2, cut-off 310 nm
Description: A silica sol-gel solution is formed by the hydrolysis of a silicon alkoxide (tetraethoxysilane, CAS No. 78-10-4) in the presence of ethanol and hydrochloric acid.
A 0.5 mg/ml aqueous pyrene-1-carboxylic solution is formed with a molar equivalent of sodium hydroxide.
One volume of the pyrene-1-carboxylic solution is mixed with an equivalent volume of the sol-gel solution: the mixture is deposited by “knife coating” on a microscope slide transparent to UV-A radiation.
After drying in ambient air, this slide is subjected to an accelerated aging test in a Suntest CPS chamber from Atlas.
The aging conditions are as follows: irradiance at 620 W/m^2, xenon arc lamp equipped with a “sheet glass” filter which cuts off the UV radiation below 310 nm, exposure time 24 h.
FIG. 1 reports the UV transmission spectra of the silica sol-gel deposited layer in which the pyrene-1-carboxylic is incorporated, before/after exposure.
The “light” stability of the pyrene-1-carboxylic compound is thus confirmed.

[3] = stability toward solar irradiation (general statement); conditions: compared with conventional UV stabilizers / substituted benzotriazoles
[4] = accelerated aging test of colored textile behind sol-gel filter layer (NF EN ISO 105-B2)
Description: A sol-gel deposited layer is produced on a glass slide under the same conditions as example 1 above, with a starting 5 mg/ml solution of pyrene-1-carboxylic.
This sample is used as filter affixed to a colored textile.
A glass slide not treated with this deposited layer is also affixed to another sample of the same colored textile for the purposes of reference sample.
The two samples are exposed to an accelerated aging test in a Suntest CPS chamber from Atlas. The aging conditions are as follows and in accordance with the standard NF EN ISO 105-B2: irradiance at 550 W/m^2, xenon arc lamp equipped with a “sheet glass” filter which cuts off the UV radiation below 310 nm, exposure time 72 h.

[5] = accelerated aging test of polyurethane varnish deposited layer, 550 W/m^2, 72 h; conditions: 50 mg per g polyurethane solution
Description: A curing agent is added to a solution of polyurethane (70% by weight) in a xylene/toluene mixture.
A molecule of nonfunctionalized pyrene (CAS No. 129000) is added in a proportion of 50 mg of pyrene per gram of polyurethane solution.
The mixture is deposited by “knife coating” on a glass slide transparent to UV-A radiation.
After drying in ambient air, this slide is subjected to an accelerated aging test in a Suntest CPS chamber from Atlas. The aging conditions are as follows: irradiance at 550 W/m^2, xenon arc lamp equipped with a “sheet glass” filter which cuts off the UV radiation below 310 nm, exposure time 72 h.
The pyrene not in accordance with the invention is obviously not stable to light.

Compound | stability over time of absorption peak under UV [1] | UV/visible transmission properties of the coating before/after exposure [2] | stability toward solar irradiation / radiation [3] | color change of the sol-gel deposited layer after exposure ([4]; 5 mg/ml solution, xenon arc 550 W/m^2, 72 h) | degradation grade on the scale of the blues of the protected colored textile ([4]; scale of 8 levels, 1 most degraded, 8 least degraded, 550 W/m^2, 72 h, untreated reference grade 1) | UV/vis transmission properties of the coating before/after exposure [5]
O=C(O)c1ccc2ccc3cccc4ccc1c2c34 [pyrene-1-carboxylic, pyrene-1-carboxylic acid] | best stability over time | retained | equivalent to that of substituted benzotriazoles | has not changed in color | 4-5 | –
c1cc2ccc3cccc4ccc(c1)c2c34 [pyrene] | – | – | – | – | – | very significantly degraded
